Laboratory results published in article PMC5520944 (Cell Death & Disease, 2017).

Experiments:
Format in all cases: cell-based
[1] = target: T1, RIPK3 (Mus musculus, UniProt Q9QZL0); test: streptavidin pull down from cell lysate, immunoblot
T1 construct: endogenous, L929sAhFas and MEF cell lysates

[2] = target: T2, RIPK1 (Mus musculus, UniProt Q60855); test: as above
T2 construct: endogenous, L929sAhFas and MEF cell lysates
T2 sequence (Q60855 1-656): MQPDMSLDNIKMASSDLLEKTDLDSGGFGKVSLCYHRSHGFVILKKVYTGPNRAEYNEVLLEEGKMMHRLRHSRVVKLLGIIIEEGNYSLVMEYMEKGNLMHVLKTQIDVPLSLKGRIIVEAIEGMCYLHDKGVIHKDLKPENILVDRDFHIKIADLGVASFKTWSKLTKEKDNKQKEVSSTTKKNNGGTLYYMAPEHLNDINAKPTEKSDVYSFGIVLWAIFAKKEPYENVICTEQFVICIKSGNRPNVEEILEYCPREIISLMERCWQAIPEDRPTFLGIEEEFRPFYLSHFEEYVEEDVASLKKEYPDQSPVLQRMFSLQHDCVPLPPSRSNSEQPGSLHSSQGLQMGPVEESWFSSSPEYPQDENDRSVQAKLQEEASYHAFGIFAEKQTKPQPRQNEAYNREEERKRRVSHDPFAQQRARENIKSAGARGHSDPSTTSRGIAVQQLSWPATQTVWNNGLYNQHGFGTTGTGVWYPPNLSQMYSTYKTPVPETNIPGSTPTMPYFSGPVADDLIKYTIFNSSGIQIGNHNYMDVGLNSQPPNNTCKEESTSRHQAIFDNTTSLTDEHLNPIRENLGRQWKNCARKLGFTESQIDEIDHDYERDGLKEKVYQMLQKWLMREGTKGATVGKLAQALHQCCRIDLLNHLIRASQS

[3] = target: T3, B-Raf (Mus musculus, UniProt P28028); test: as above
T3 construct: gene Braf; endogenous, L929sAhFas cell lysate
T3 sequence (P28028 2-751): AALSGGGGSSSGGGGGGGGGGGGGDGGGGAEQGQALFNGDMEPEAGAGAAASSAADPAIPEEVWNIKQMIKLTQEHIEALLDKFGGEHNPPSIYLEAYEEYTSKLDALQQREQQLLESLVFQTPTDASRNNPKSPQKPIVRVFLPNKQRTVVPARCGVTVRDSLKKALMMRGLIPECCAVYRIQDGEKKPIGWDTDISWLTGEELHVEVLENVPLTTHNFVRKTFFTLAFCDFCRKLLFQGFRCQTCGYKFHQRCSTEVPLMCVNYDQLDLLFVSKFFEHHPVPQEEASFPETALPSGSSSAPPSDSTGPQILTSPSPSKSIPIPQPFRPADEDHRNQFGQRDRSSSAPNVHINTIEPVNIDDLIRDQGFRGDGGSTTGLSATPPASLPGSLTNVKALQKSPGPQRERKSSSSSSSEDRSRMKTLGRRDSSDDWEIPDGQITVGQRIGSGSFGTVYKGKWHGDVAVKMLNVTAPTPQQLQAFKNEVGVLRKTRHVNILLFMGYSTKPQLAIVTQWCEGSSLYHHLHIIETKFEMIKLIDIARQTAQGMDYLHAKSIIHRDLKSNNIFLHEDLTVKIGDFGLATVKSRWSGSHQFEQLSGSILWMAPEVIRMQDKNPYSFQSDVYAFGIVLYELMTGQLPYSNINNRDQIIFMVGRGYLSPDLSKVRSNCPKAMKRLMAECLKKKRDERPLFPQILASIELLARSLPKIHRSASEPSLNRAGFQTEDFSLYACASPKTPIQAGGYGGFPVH

[4] = target: T4, MLKL (Mus musculus, UniProt Q9D2Y4); test: streptavidin pull down from lysates, including RIPK1-/- and RIPK3-/- MEF
T4 construct: endogenous, L929sAhFas and MEF cell lysates
T4 sequence (Q9D2Y4 1-472): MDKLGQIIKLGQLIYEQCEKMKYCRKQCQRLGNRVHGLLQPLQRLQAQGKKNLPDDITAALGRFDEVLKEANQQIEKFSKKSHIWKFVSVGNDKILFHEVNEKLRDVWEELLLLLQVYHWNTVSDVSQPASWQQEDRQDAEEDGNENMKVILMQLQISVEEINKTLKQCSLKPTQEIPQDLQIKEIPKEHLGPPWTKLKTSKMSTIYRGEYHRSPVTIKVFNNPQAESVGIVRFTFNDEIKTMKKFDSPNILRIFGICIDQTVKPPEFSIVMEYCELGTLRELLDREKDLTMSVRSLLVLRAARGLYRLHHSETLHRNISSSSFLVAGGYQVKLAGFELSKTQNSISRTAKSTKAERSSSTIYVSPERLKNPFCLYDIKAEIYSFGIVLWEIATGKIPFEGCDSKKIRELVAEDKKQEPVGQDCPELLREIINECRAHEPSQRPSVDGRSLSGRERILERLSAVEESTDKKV

T1 sequence (Q9QZL0 whole entry): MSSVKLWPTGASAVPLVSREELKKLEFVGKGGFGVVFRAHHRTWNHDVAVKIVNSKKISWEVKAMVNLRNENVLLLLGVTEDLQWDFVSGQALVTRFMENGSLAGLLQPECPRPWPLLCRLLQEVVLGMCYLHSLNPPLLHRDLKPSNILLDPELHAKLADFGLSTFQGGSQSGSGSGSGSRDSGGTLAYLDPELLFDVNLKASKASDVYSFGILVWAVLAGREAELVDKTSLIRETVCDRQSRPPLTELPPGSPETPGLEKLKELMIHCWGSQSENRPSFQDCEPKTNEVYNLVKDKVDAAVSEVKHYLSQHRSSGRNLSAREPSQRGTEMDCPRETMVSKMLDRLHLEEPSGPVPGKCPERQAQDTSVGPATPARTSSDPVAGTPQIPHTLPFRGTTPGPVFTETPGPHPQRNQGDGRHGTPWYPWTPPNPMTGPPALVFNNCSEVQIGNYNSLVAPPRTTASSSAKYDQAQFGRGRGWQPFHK

In the case of `O=C(CCCC[C@@H]1SC[C@@H]2NC(=O)N[C@@H]21)NCCOCCOCCNC(=O)c1cc(Oc2ccc(NC(=O)Nc3ccc(Cl)c(C(F)(F)F)c3)cc2)ccn1` [compound 10, biotinylated Sorafenib], the “streptavidin pull down from cell lysate, immunoblot” value (“streptavidin pull down … immunoblot” for short) [1] is reported as “We show a dose-dependent pull down of RIPK1, RIPK3, MLKL and B-Raf”, the “streptavidin pull down … immunoblot” value [2] is reported as “We show a dose-dependent pull down of RIPK1, RIPK3, MLKL and B-Raf” and the “streptavidin pull down … immunoblot” value [3] is reported as “We show a dose-dependent pull down of RIPK1, RIPK3, MLKL and B-Raf”. For the same compound, the “streptavidin pull down from lysates, including RIPK1-/- and RIPK3-/- MEF” value [4] was “Sorafenib is likely to bind independently to RIPK1, RIPK3 or MLKL (Figure 4c), even in the absence of a necroptotic stimulus”.
